Values joined by “and” are separate entries in the source; they are usually repeats but may differ in a detail not shown here. Identical values can stand only once.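 These data come from cells grown in 96-well plates and exposed to compound for 48 hours at five concentrations. Abbreviation: GI50, concentration required for 50% inhibition of growth. TGI is the concentration that stops growth completely.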
Test system: MDA-MB-468 breast
Assay: growth of human tumour cells (NCI), 48 h

Work on O=c1[nH]ccc2nc(N3CCC(O)CC3)nc(Nc3ccc(N4CCOCC4)cc3)c12 yielded a GI50 of 43200 nM and a TGI of over 100000 nM.
For C/C(=N\NC(=O)c1cccc(S(=O)(=O)N2CCN(C)CC2)c1)c1cc(Cl)ccc1O, the GI50 was 402 nM and the TGI was 3870 nM.
Work on CCCCCCCC(=O)SCC/C=C/[C@@H]1CC(=O)NCc2cccc(n2)C2=N[C@@](C)(CS2)C(=O)N[C@@H](C(C)C)C(=O)O1 yielded a GI50 of 107 nM and a TGI of over 33300 nM.
With COc1ccc2[nH]cc(/C=N/Nc3ccnc4cc(Cl)ccc34)c2c1 the GI50 was 1130 nM and the TGI was 2600 nM.
For Cc1ccccc1NC(=O)N/C(N)=N/c1nc(C)c(C)s1, the GI50 was 224 nM and the TGI was 788 nM.
With Cc1ccc(C(=O)Nc2ccc(CN3CCN(C)CC3)c(C(F)(F)F)c2)cc1C#Cc1cnc(N)c2ccc(C#N)cc12 the GI50 was 156 nM and the TGI was 9630 nM.
Oc1ccccc1/C=N/Nc1nc2ccccc2s1 showed a GI50 of 2510 nM and a TGI of 60700 nM.
Compound Cc1c(C)n(CC(O)CNC2CCCCC2C)c2ccccc12 (stereo unspecified) has a GI50 of 9210 nM and a TGI of 23000 nM.
OCCNC(=S)Nc1ccc(-c2nc(N3C[C@H]4CC[C@@H](C3)O4)c3cccn3n2)cc1 was tested, and the GI50 was 17.4 nM and the TGI was 289 nM.
In the case of COc1ccc(/C=C(/C(=O)N2CCN(c3ccc(C)cc3)CC2)c2cc(OC)c(OC)c(OC)c2)cc1N, the GI50 is reported as 224 nM.
With COc1ccc(C(=O)OC2C(OC3C(O)COC(O[C@H]4C[C@H]5[C@@H]6CC=C7C[C@@H](O)CC[C@]7(C)[C@H]6CC[C@]5(C)[C@H]4[C@H](C)C(=O)CCC(C)C)C3OC(=O)C(C)C)OCC(O)C2O)cc1 (stereo partly specified) the GI50 was 58.3 nM and the TGI was 3550 nM.
Compound N#Cc1c(N)n(C2OC(CO)C(O)C2O)c2ncnc(N)c12 (stereo unspecified) has a GI50 of 17.3 nM and a TGI of 34.9 nM.
Nc1c(C(=O)c2cccc(C(O)(CO)CO)c2)cnn1-c1ccc(F)cc1 showed a GI50 of over 25000 nM and a TGI of over 25000 nM.
COc1ccc2nc(-c3ccc(Cl)cc3)cc(-c3nnc(SCC(=O)Nc4ccc(/C(C)=N\O)cc4)o3)c2c1 gave a GI50 of 1380 nM and a TGI of 3580 nM.
CC/C=C\C[C@H](O)C/C=C1/C(=O)C=C[C@@H]1C/C=C\CCCC(=O)OCCS(=O)(=O)c1ccccc1 gave a GI50 of 2280 nM and a TGI of 6830 nM.
Work on COc1ccccc1CN=C1NC(=O)/C(=C/c2ccc3ncccc3c2)S1 yielded a GI50 of 3350 nM and a TGI of over 25000 nM.
In the case of CN(C)c1ccc(/C=N/NC(=O)CSc2nc3sc4c(c3c(=O)n2-c2ccccc2)CCCCC4)cc1, the GI50 is reported as 3850 nM and the TGI is reported as over 100000 nM.
With COc1ccc(Nc2[nH]n(C3=Nc4ccccc4Sc4ccccc43)c(=O)c2C#N)cc1 the GI50 was 382 nM and the TGI was 2810 nM.
CC(C)C[C@H](NC(=O)[C@H](Cc1ccccc1)NC(=O)c1cnccn1)B(O)O was tested, and the GI50 was < 10 nM and 1.9 nM and the TGI was < 10 nM and 5.2 nM.
COc1ccc(C2CC(c3ccc4ccccc4c3)=NN2/C=C2\SC(=S)N(NC(=O)Cc3ccccc3Nc3c(Cl)cccc3Cl)C2=O)cc1 (stereo unspecified) was tested, and the GI50 was 544 nM and the TGI was over 34200 nM.
In the case of OC1CCN(CCCOc2c3ccccc3nc3c2oc2ccccc23)CC1, the GI50 is reported as 1760 nM and the TGI is reported as 4910 nM.
Work on CCN(CC)c1ccc(CNc2cc(C)nc3ccc(OC)cc23)cc1 yielded a GI50 of 1020 nM and a TGI of 2630 nM.
O=C(/C=C/c1ccccc1)Nc1ncc(Cc2ccccc2)s1 was tested, and the GI50 was 416 nM and the TGI was over 100000 nM.
With Cc1cc(NCCCNc2ccnc3cc(Cl)ccc23)nc(Nc2ccc(C(=O)N3CCCCC3)cc2)n1 the GI50 was 2330 nM and the TGI was 4690 nM.
For COc1cc(/C=C/C(=O)c2ccc(F)cc2)ccc1OCCCCOc1cc2c(cc1OC)C(=O)N1CCCC1C=N2 (stereo unspecified), the GI50 was 1710 nM and the TGI was 3590 nM.
For c1cc2c(cc1NC1=NCCO1)CCCC2, the GI50 was 6180 nM and the TGI was 24800 nM.
With CS(=O)(=O)c1nccc(-c2c(-c3cccc(OCc4ccccc4)c3)nc3sccn23)n1 the GI50 was 1410 nM and the TGI was 3000 nM.
With C=C(C)[C@@H]1CC[C@]2(C(=O)N3CCN(C)CC3)CC[C@]3(C)[C@H](CC[C@@H]4[C@@]5(C)C/C(=C/c6ccncc6)[C@H](O)C(C)(C)[C@@H]5CC[C@]43C)[C@@H]12 the GI50 was 5450 nM and the TGI was 26100 nM.
Work on COc1ccc2c(c1)O/C(=C\c1ccc([N+](=O)[O-])o1)C2=O yielded a GI50 of 519 nM and a TGI of 2260 nM.
COc1cc(-c2nn(-c3ccc(NC(=O)Nc4ccc(Cl)c(C(F)(F)F)c4)cc3)cc2-c2ccncc2)ccc1Cl showed a GI50 of 1390 nM and a TGI of 3230 nM.
COc1ccc(-c2c(-c3cc4c(c(OC)c3OC)OCO4)noc2N)cc1 gave a GI50 of 192 nM.
For CC[C@]12C=CCN3CC[C@@]4(c5ccc(OC)cc5N(C)[C@H]4[C@@](O)(C(=O)OC)[C@@H]1OC(=O)CCCC[P+](c1ccccc1)(c1ccccc1)c1ccccc1)[C@@H]32, the GI50 was 195 nM and the TGI was 575 nM.
COc1ccc(NC(=O)COc2ccccc2)c(C(N)=O)c1 gave a GI50 of 453 nM and a TGI of over 62800 nM.
For O=c1ncc(I)c[nH]1, the GI50 was over 100000 nM and the TGI was over 100000 nM.
In the case of O=C(NCCN1CCOCC1)Nc1nc2ccc(Sc3nnc4ccc(-c5ccc(F)cc5)nn34)cc2s1, the TGI is reported as over 29300 nM.
O=C1C2=C(C(=O)c3c(O)ccc(O)c31)N(c1cccnc1)Cc1ccccc1O2 was tested, and the GI50 was 175 nM and the TGI was 458 nM.
For O=C(Nc1ccc(-n2ccc3c(NC(=O)c4ccccc4)ncnc32)cc1)Nc1ccc(Cl)c(C(F)(F)F)c1, the GI50 was 1440 nM and the TGI was 3320 nM.

— PubChem BioAssay (NCI)
